Values quoted from earlier work, collected in US20230129072A1, “SYSTEM, PRODUCT AND METHOD FOR MAINTAINING THE VAGINAL MICROBIOME” (VAGINAL BIOME SCIENCE, INC., priority 2021, published 2023).

Key:
[1] = system: Lactobacilli spp.
[2] = system: herpes simplex virus (HSV-2); conditions: after a single exposure

| Molecule | toxicity to beneficial Lactobacilli spp. [1] | susceptibility to herpes simplex virus (HSV-2) [2] |
| --- | --- | --- |
| nonoxynol-9 [Example N9] | toxic |  |
| CC(O)CO (stereo not drawn) [propylene glycol] |  | markedly increased susceptibility |
| polyethylene glycol (PEG-8) |  | markedly increased susceptibility |
